Assay results reported in PubChem BioAssay (NCI).
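Tested at 5 concentrations; 48 h exposure; 96-well plates; endpoints linearly interpolated, else capped at highest concentration. GI50 is the concentration that inhibits growth by half. TGI: total growth inhibition.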

How the values were obtained:
Experiment in all cases: inhibition of tumour cell growth, NCI panel, 48 h
HCC-2998 colon = system: HCC-2998 colon
PC-3 prostate = system: PC-3 prostate
SF-295 CNS = system: SF-295 CNS
ACHN renal = system: ACHN renal
RPMI-8226 leukemia = system: RPMI-8226 leukemia
CAKI-1 renal = system: CAKI-1 renal
SN12C renal = system: SN12C renal
NCI/ADR-RES ovarian = system: NCI/ADR-RES ovarian
SK-MEL-2 melanoma = system: SK-MEL-2 melanoma
K-562 leukemia = system: K-562 leukemia

| Structure (SMILES) | GI50 (HCC-2998 colon) [µM] | TGI (HCC-2998 colon) [µM] | GI50 (PC-3 prostate) [µM] | TGI (PC-3 prostate) [µM] | GI50 (SF-295 CNS) [µM] | TGI (SF-295 CNS) [µM] | GI50 (ACHN renal) [µM] | TGI (ACHN renal) [µM] | GI50 (RPMI-8226 leukemia) [µM] | TGI (RPMI-8226 leukemia) [µM] | GI50 (CAKI-1 renal) [µM] | TGI (CAKI-1 renal) [µM] | GI50 (SN12C renal) [µM] | TGI (SN12C renal) [µM] | GI50 (NCI/ADR-RES ovarian) [µM] | TGI (NCI/ADR-RES ovarian) [µM] | GI50 (SK-MEL-2 melanoma) [µM] | TGI (SK-MEL-2 melanoma) [µM] | GI50 (K-562 leukemia) [µM] | TGI (K-562 leukemia) [µM] |
| --- | --- | --- | --- | --- | --- | --- | --- | --- | --- | --- | --- | --- | --- | --- | --- | --- | --- | --- | --- | --- |
| COc1ccc(-c2oc(=O)ccc2-c2cc(OC)c(OC)c(OC)c2)cc1O | 1.8 | 10.5 | 0.963 | > 100 | 1.26 | > 100 | 5.05 | > 95.2 | 1.4 | 6.19 | 3.08 | > 80.8 | 6.4 | > 100 | 1.48 | > 100 | 2.31 | > 38.7 | 0.439 | > 100 |
| CNC(=S)NC(=O)c1c(Cl)n(C(=O)OC(C)(C)C)c2ccccc12 | 27.6 | > 100 | 25.5 | > 100 | 56.4 | > 100 | 89.6 | > 100 | 20.5 | 68.9 | 21.2 | 69.9 | 72.8 | > 100 | 47.8 | > 100 | > 100 | > 100 | > 100 | > 100 |
| O=C1NC(=O)C(c2ccccc2Cl)=C1Nc1cc(Cl)c(O)c(Cl)c1 | > 25 | > 25 | > 23 | > 25 | > 25 | > 25 | > 23.7 | > 25 | > 19.4 | > 25 | > 21.5 | > 25 | > 21.5 | > 25 | 14.9 | > 25 | 12 | > 25 | 12.3 | > 25 |
| CS(=O)(=O)CCNCc1ccc(-c2ccc3ncnc(Nc4ccc(OCc5ccccc5)c(Br)c4)c3c2)o1 | 4.56 | 9.11 | 9.28 | > 25 | 5.26 | 12.8 | 1.13 | > 25 | 8.67 | > 24.1 | 2.43 | > 25 | 11.9 | > 25 | 6.87 | > 25 | 6.5 | 13.1 | 7.72 | > 20.6 |
| CCN(Cc1ccccc1)c1ccc(CO)c(Cl)c1 | 8.33 | 34.5 | 18.2 | > 53.6 | 1 | > 56 | 30.2 | > 100 | 5.53 | 44.7 | 0.845 | 21.4 | 19.8 | > 100 | 14.4 | 56.8 | 3.79 | 24.7 | 2.69 | > 100 |
| CCOP(=O)(OCC)/C(=C/NC(=S)c1ccncc1)C(=O)OC |  | > 100 |  | > 100 |  | > 100 |  | > 100 |  | > 100 |  | > 100 |  | > 100 |  | > 100 |  | > 100 |  | > 100 |
| COc1ccc(NC([Se])=NC23CC4CC(CC(C4)C2)C3)cc1 | 2.86 | 8.5 | 0.696 | 32.2 | 1.52 | 4.15 | 1.99 | 4.71 | 0.845 | 3.8 | 2.57 | 10.2 | 1.61 | 8.81 | 0.711 | 8.88 | 2.27 | 7.33 | 0.542 | 18.8 |
| O=c1cc(N2CCN(CCCCCOc3cc(O)c4c(=O)cc(-c5ccccc5)oc4c3)CC2)c2ccccc2o1 | 48.3 | > 100 | 43.1 | > 100 | > 100 | > 100 | > 100 | > 100 | 12.4 | > 100 | > 100 | > 100 | 45.4 | > 100 | 74.2 | > 100 | > 100 | > 100 | 15.4 | > 100 |
| CCCN(CCC)c1ccc(/C=C/c2ccc3cc(OCC)ccc3n2)cc1 | > 100 | > 100 | 56.3 | > 100 | 22.7 | > 100 | 63.4 | > 100 | 6.29 | > 100 | 73.3 | > 100 | > 100 | > 100 | > 100 | > 100 | > 100 | > 100 | 9.37 | > 100 |
| Cc1nc2sc(C(=O)Nc3cccc4ccccc34)c(N)c2cc1C(O)c1ccccc1 (stereo not given) | 0.193 | 2.89 | 0.118 | > 38 | 0.0513 | 4.42 | 0.0726 | 19.2 | 0.0595 | 5.74 | 0.0583 | 12 | 0.0971 | 9.49 | 0.0373 | 0.968 | 0.29 | 16.9 | 0.0442 | > 39.6 |
